Measurements: patent US9155795B2, “CXCR4 receptor compounds” (Anchor Therapeutics, Inc., priority 2010, dated 2015)
Where a SMILES comes first, the peptide text is derived from it. [ ]: non-standard residue; d: D form. The star is where a group is joined. 2Nal = N[C@@H](Cc1ccc2ccccc2c1)C(=O)O; Palmitoyl = CCCCCCCCCCCCCCCC(=O)*; hSer = N[C@@H](CCO)C(=O)O; Nle = CCCC[C@H](N)C(=O)O; Dap = NC[C@H](N)C(=O)O

Assays:
male BALB/c mice = assay: Mobilization of polymorphonuclear leukocytes (PMNs) in mice; assay type: in vivo; conditions: 6.66 μmol/kg subcutaneous, blood 3 hours after injection
Experimental: The effect of Compound 26 on mobilization of PMNs following subcutaneous administration was evaluated in mice. […] Louis, Mo.) was administered subcutaneously to 10 mice. […] Neutrophil and lymphocyte counts were determined using a Hemavet Model 950FS cell counter (Drew Scientific, Dallas, Tex.).

CXCR4 = biological target: T1, CXCR4 (Homo sapiens, UniProt P61073); assay: Calcium flux assay, agonist mode, Flexstation (CCRF-CEM cells); assay type: cell-based; conditions: CCRF-CEM, percent of maximum response compared with SDF-1α, read-out: % Intrinsic Activity
T1 construct: CCRF-CEM cells, a human T-cell ALL line that endogenously expresses CXCR4; endogenous in cells; host or cells: CCRF-CEM (human T-cell acute lymphoblastic leukemia line)
Text: Calcium Flux Assay is one of the most popular cell-based GPCR functional assays. It most often uses calcium sensing fluorescent dyes such as fura2 AM, fluo-4 and Calcium-4 to measure changes in intracellular calcium concentration. It is used mainly to detect GPCR signaling via Gαq subunit. Activation of these Gq-coupled GPCRs leads to activation of phospholipase C, which subsequently leads to increase in inositol phosphate production. IP3 receptors on endoplasmic reticulum sense the change then release calcium into cytoplasm. Intracellular calcium binding to the fluorescent dyes can be detected by instruments that quantify fluorescent intensities, such as FLIPR Tetra, Flexstation (MDS) and FDSS (Hamamatsu). In addition, to assess Gq-couple receptor signaling, a calcium flux assay can also be used to study Gs and Gi couple receptors by co-expressing CNG (cyclic nucleotide gated calcium channel) or chimeric G-proteins (Gqi5, Gsi5 for example). Activation of some Gi-coupled receptors can also be detected by calcium flux assay via Gβγ mediated phospholipase C activation.
The calcium flux assay was used to assess the test compounds' ability to activate the CXCR4 receptor in CCRF-CEM cells (human T lymphoblasts from acute lymphoblastic leukemia). […] After dye loading by incubating with Calcium-4 dye at 37° C. for 1 hour, cell plates were read at 37° C. using the using the Flexstation 3 workstation. Receptor activation was assessed by measuring changes in fluorescent intensity after the addition of the test compounds or the reference agonist SDF-1α on the using the Flexstation 3 workstation. EC50
and percent intrinsic actively were derived from the data collected. Intrinsic activity refers to the efficacy of the test compound and is calculated as the percent of maximum response compared with the response of the reference standard (i.e., natural agonist, SDF-1α).

T1 sequence (P61073 whole entry): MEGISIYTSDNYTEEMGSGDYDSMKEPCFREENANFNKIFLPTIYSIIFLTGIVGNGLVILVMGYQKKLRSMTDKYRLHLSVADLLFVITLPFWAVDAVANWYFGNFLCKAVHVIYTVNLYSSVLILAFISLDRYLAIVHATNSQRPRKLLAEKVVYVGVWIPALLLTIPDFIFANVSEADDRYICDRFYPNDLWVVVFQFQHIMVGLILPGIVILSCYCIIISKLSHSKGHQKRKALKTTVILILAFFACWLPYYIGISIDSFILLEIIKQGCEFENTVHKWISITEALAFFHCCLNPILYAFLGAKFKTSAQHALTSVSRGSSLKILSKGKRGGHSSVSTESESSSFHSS

| Emax (CXCR4) | SMILES | Lymphocytes (×10^3 μl) Mean ± SD (male BALB/c mice) | PMNs (×10^3 μl) Mean ± SD (male BALB/c mice) |
| --- | --- | --- | --- |
| – | c1cc(CN2CCCNCCNCCCNCC2)ccc1CN1CCCNCCNCCCNCC1 [AMD3100, reference compound] | 8.76 ± 1.67 ×10^3 μl | 7.83 ± 3.20 ×10^3 μl |
| 100% | CCCCCCCCCCCCCCCC(=O)N[C@@H](CCSC)C(=O)NCC(=O)N[C@@H](Cc1ccc(O)cc1)C(=O)N[C@@H](CCC(N)=O)C(=O)N[C@@H](CCCCN)C(=O)N[C@@H](CCCCN)C(=O)N[C@@H](CC(C)C)C(=O)N1CCC[C@H]1C(=O)N[C@@H](CCCNC(=N)N)C(=O)N[C@@H](CO)C(=O)N[C@@H](CCSC)C(=O)N[C@H](C(=O)N[C@@H](CC(=O)O)C(=O)N[C@@H](CCCCN)C(=O)N[C@@H](Cc1ccc(O)cc1)C(=O)N[C@@H](CCCNC(=N)N)C(=O)N[C@@H](CC(C)C)C(N)=O)[C@@H](C)O [Compound 7] (Palmitoyl-MGYQKKLPRSMTDKYRL-NH2; C-terminus assumed) | – | – |
| 61.4% | CCCCCCCCCCCCCCCC(=O)N[C@@H](CCSC)C(=O)NCC(=O)N[C@@H](Cc1ccc(O)cc1)C(=O)N[C@@H](CCC(N)=O)C(=O)N[C@@H](CCCCN)C(=O)N[C@@H](CCCCN)C(=O)N[C@@H](CC(C)C)C(=O)N[C@@H](CCCNC(=N)N)C(=O)N[C@@H](CO)C(=O)N[C@@H](CCSC)C(=O)N[C@H](C(=O)N[C@@H](CC(=O)O)C(=O)N[C@@H](CCCCN)C(=O)N[C@@H](Cc1ccc(O)cc1)C(=O)N[C@@H](CCCCN)C(=O)N[C@@H](CC(C)C)C(N)=O)[C@@H](C)O [Compound 13] (Palmitoyl-MGYQKKLRSMTDKYKL-NH2; C-terminus assumed) | – | – |
| 77.7% | CCCCCCCCCCCCCCCC(=O)N[C@@H](CCOC)C(=O)NCC(=O)N[C@@H](Cc1ccc(O)cc1)C(=O)N[C@@H](CCC(N)=O)C(=O)N[C@@H](CCCCN)C(=O)N[C@@H](CCCCN)C(=O)N[C@@H](CC(C)C)C(=O)N[C@@H](CCCNC(=N)N)C(=O)N[C@@H](CO)C(=O)N[C@@H](CCOC)C(=O)N[C@H](C(=O)N[C@@H](CC(=O)O)C(=O)N[C@@H](CCCCN)C(=O)N[C@@H](Cc1ccc(O)cc1)C(=O)N[C@@H](CCCNC(=N)N)C(=O)N[C@@H](CC(C)C)C(N)=O)[C@@H](C)O [Compound 22] (Palmitoyl-[hSer](Me)GYQKKLRS[hSer](Me)TDKYRL-NH2) | – | – |
| 78.7% | CCCCCCCCCCCCCCCC(=O)NCC(=O)NCC(=O)N[C@@H](Cc1ccc(O)cc1)C(=O)N[C@@H](CCC(N)=O)C(=O)N[C@@H](CCCCN)C(=O)N[C@@H](CCCCN)C(=O)N[C@@H](CC(C)C)C(=O)N[C@@H](CCCNC(=N)N)C(=O)N[C@@H](CO)C(=O)N[C@@H](C)C(=O)N[C@H](C(=O)N[C@@H](CC(=O)O)C(=O)N[C@@H](CCCCN)C(=O)N[C@@H](Cc1ccc(O)cc1)C(=O)N[C@@H](CCCNC(=N)N)C(=O)N[C@@H](CC(C)C)C(=O)N[C@@H](Cc1c[nH]cn1)C(N)=O)[C@@H](C)O [Compound 40] (Palmitoyl-GGYQKKLRSATDKYRLH-NH2; C-terminus assumed) | – | – |
| 95.3% | CCCCCCCCCCCCCCCC(=O)N[C@@H](CS)C(=O)NCC(=O)N[C@@H](Cc1ccc(O)cc1)C(=O)N[C@@H](CCC(N)=O)C(=O)N[C@@H](CCCCN)C(=O)N[C@@H](CCCCN)C(=O)N[C@@H](CC(C)C)C(=O)N[C@@H](CCCNC(=N)N)C(=O)N[C@@H](CO)C(=O)N[C@@H](C)C(=O)N[C@H](C(=O)N[C@@H](CC(=O)O)C(=O)N[C@@H](CCCCN)C(=O)N[C@@H](Cc1ccc(O)cc1)C(=O)N[C@@H](CCCNC(=N)N)C(=O)N[C@@H](CC(C)C)C(N)=O)[C@@H](C)O [Compound 30] (Palmitoyl-CGYQKKLRSATDKYRL-NH2; C-terminus assumed) | – | – |
| 88.9% | CCCCCCCCCCCCCCCC(=O)NCC(=O)NCC(=O)N[C@@H](Cc1ccc(O)cc1)C(=O)N[C@@H](CCC(N)=O)C(=O)N[C@@H](CCCCN)C(=O)N[C@@H](CCCCN)C(=O)N[C@@H](CC(C)C)C(=O)N[C@@H](CCCNC(=N)N)C(=O)N1CCC[C@@H]1C(=O)N[C@@H](C)C(=O)N[C@H](C(=O)N[C@@H](CC(=O)O)C(=O)N[C@@H](CCCCN)C(=O)N[C@@H](Cc1ccccc1)C(=O)N[C@@H](CCCNC(=N)N)C(=O)N[C@@H](CC(C)C)C(N)=O)[C@@H](C)O [Compound 29] (Palmitoyl-GGYQKKLR[dP]ATDKFRL-NH2; C-terminus assumed) | – | – |
| 62.5% | CCCCCCCCCCCCCCCC(=O)NCC(=O)N[C@@H](Cc1ccc(O)cc1)C(=O)N[C@@H](CCC(N)=O)C(=O)N[C@@H](CCCCN)C(=O)N[C@@H](CCCCN)C(=O)N[C@@H](CC(C)C)C(=O)N[C@@H](CCCNC(=N)N)C(=O)N[C@@H](CO)C(=O)N[C@@H](CCCC)C(=O)N[C@H](C(=O)N[C@@H](CC(=O)O)C(=O)N[C@@H](CCCCN)C(=O)N[C@@H](Cc1ccc(O)cc1)C(=O)N[C@@H](CCCNC(=N)N)C(=O)N[C@H](C(N)=O)[C@@H](C)CC)[C@@H](C)O [Compound 20] (Palmitoyl-GYQKKLRS[Nle]TDKYRI-NH2; C-terminus assumed) | – | – |
| 86.8% | CCCCCCCCCCCCCCCC(=O)NCC(=O)NCC(=O)N[C@@H](Cc1ccc(O)cc1)C(=O)N[C@@H](CCC(N)=O)C(=O)N[C@@H](CCCCN)C(=O)N[C@@H](CCCCN)C(=O)N[C@@H](Cc1c[nH]cn1)C(=O)N[C@@H](CCCNC(=N)N)C(=O)N[C@@H](CO)C(=O)N[C@@H](C)C(=O)N[C@H](C(=O)N[C@@H](CC(=O)O)C(=O)N[C@@H](CCCCN)C(=O)N[C@@H](Cc1ccc(O)cc1)C(=O)N[C@@H](CCCNC(=N)N)C(=O)N[C@@H](CC(C)C)C(N)=O)[C@@H](C)O [Compound 38] (Palmitoyl-GGYQKKHRSATDKYRL-NH2; C-terminus assumed) | – | – |
| 93.4% | CCCCCCCCCCCCCCCC(=O)N[C@@H](CCSC)C(=O)NCC(=O)N[C@@H](Cc1ccc(O)cc1)C(=O)N[C@@H](CCC(N)=O)C(=O)N[C@@H](CCCCN)C(=O)N[C@@H](CCCCN)C(=O)N[C@@H](CC(C)C)C(=O)N[C@@H](CCCNC(=N)N)C(=O)N[C@@H](CO)C(=O)N[C@@H](Cc1c[nH]cn1)C(=O)N[C@H](C(=O)N[C@@H](CC(=O)O)C(=O)N[C@@H](CCCCN)C(=O)N[C@@H](Cc1ccc(O)cc1)C(=O)N[C@@H](CCCNC(=N)N)C(=O)N[C@@H](CC(C)C)C(N)=O)[C@@H](C)O [Compound 18] (Palmitoyl-MGYQKKLRSHTDKYRL-NH2; C-terminus assumed) | – | – |
| 90.2% | CCCCCCCCCCCCCCCC(=O)N[C@@H](CCSC)C(=O)NCC(=O)N[C@@H](Cc1ccc(O)cc1)C(=O)N[C@@H](CCC(N)=O)C(=O)N[C@@H](CCCCN)C(=O)N1CCC[C@H]1C(=O)N[C@@H](CC(C)C)C(=O)N[C@@H](CCCNC(=N)N)C(=O)N[C@@H](CO)C(=O)N[C@@H](CCSC)C(=O)N[C@H](C(=O)N[C@@H](CC(=O)O)C(=O)N[C@@H](CCCCN)C(=O)N[C@@H](Cc1ccc(O)cc1)C(=O)N[C@@H](CCCNC(=N)N)C(=O)N[C@@H](CC(C)C)C(N)=O)[C@@H](C)O [Compound 6] (Palmitoyl-MGYQKPLRSMTDKYRL-NH2; C-terminus assumed) | – | – |
| 103% | CCCCCCCCCCCCCCCC(=O)NCC(=O)NCC(=O)N[C@@H](Cc1ccc(O)cc1)C(=O)N[C@@H](CCC(N)=O)C(=O)N[C@@H](CCCCN)C(=O)N[C@@H](CCCCN)C(=O)N[C@@H](CC(C)C)C(=O)N[C@@H](CCCNC(=N)N)C(=O)N1CCC[C@@H]1C(=O)N[C@@H](CN)C(=O)N[C@H](C(=O)N[C@@H](CC(=O)O)C(=O)N[C@@H](CCCCN)C(=O)N[C@@H](Cc1ccc(O)cc1)C(=O)N[C@@H](CCCNC(=N)N)C(=O)N[C@@H](CC(C)C)C(N)=O)[C@@H](C)O [Compound 34] (Palmitoyl-GGYQKKLR[dP][Dap]TDKYRL-NH2; C-terminus assumed) | – | – |
| 34.4% | CCCCCCCCCCCCCCCC(=O)N[C@@H](CCSC)C(=O)NCC(=O)N[C@@H](Cc1ccc(O)cc1)C(=O)N[C@@H](CCC(N)=O)C(=O)N[C@@H](CCCCN)C(=O)N[C@@H](CCCCN)C(=O)N[C@@H](CC(C)C)C(=O)N[C@@H](CCCNC(=N)N)C(=O)N[C@@H](CO)C(=O)N[C@@H](CCSC)C(=O)N[C@H](C(=O)N[C@@H](CC(=O)O)C(=O)N[C@@H](CCCCN)C(=O)N[C@@H](Cc1ccc2ccccc2c1)C(=O)N[C@@H](CCCNC(=N)N)C(=O)N[C@@H](CC(C)C)C(N)=O)[C@@H](C)O [Compound 16] (Palmitoyl-MGYQKKLRSMTDK[2Nal]RL-NH2; C-terminus assumed) | – | – |

| SMILES | Emax (CXCR4) | Lymphocytes (×10^3 μl) Mean ± SD (male BALB/c mice) | PMNs (×10^3 μl) Mean ± SD (male BALB/c mice) |
| --- | --- | --- | --- |
| CCCCCCCCCCCCCCCC(=O)N[C@@H](CCSC)C(=O)NCC(=O)N[C@@H](Cc1ccc(O)cc1)C(=O)N[C@@H](CCC(N)=O)C(=O)N[C@@H](CCCCN)C(=O)N[C@@H](CCCCN)C(=O)N[C@@H](CC(C)C)C(=O)N[C@@H](CCCNC(=N)N)C(=O)N[C@@H](CO)C(=O)N1CCC[C@@H]1C(=O)N[C@@H](CCSC)C(=O)N[C@H](C(=O)N[C@@H](CC(=O)O)C(=O)N[C@@H](CCCCN)C(=O)N[C@@H](Cc1ccc(O)cc1)C(=O)N[C@@H](CCCNC(=N)N)C(=O)N[C@@H](CC(C)C)C(N)=O)[C@@H](C)O [Compound 9] (Palmitoyl-MGYQKKLRS[dP]MTDKYRL-NH2; C-terminus assumed) | 77.9% | – | – |
